These are literature values, as cited in PubChem BioAssay AID1259409 (Chemical Carcinogenesis Research Information System (CCRIS), 2018).

Molecules are shown by their SMILES.

This data set concerns rodent chemically induced tumor inhibition, incidence and multiplicity. The data set is described as follows: CCRIS tumor inhibitor studies. The conditions noted are these: Promoter: NONE USED.

On to `CC/C(=C(\c1ccccc1)c1ccc(OCCN(C)C)cc1)c1ccccc1`, for which the “tumour outcome (control, treated, inhibition, significance)” value (Carcinogen: N-METHYL-N-NITROSOUREA, 684-93-5, Dose [Inhibitor]: 50 UG DISSOLVED IN SMALL VOLUME OF ETHANOL AND DILUTED IN 1% GELATIN-0.9% NACL TO INJECTION VOLUME OF 0.2 ML, DAILY STAR, Route [Inhibitor]: INJECTION, Species: RAT, Strain/Sex: SPRAGUE-DAWLEY/FEMALE, Target Tissue: Type of Lesion: MAMMARY GLAND: TUMOR, Dose [Carcinogen]: 5 MG/100 G BW AT 0, 4 AND 8 WK OF STUDY STARTING SIMULTANEOUSLY WITH AGENT TREATMENT) is 86%, 9%, 90%, not calculated; the “tumour outcome (control, treated, inhibition, significance)” value (Carcinogen: N-NITROSO-N-METHYLUREA, 684-93-5, Dose [Inhibitor]: 0, 0.5 MG/KG OF DIET FOR 3 MO BEGINNING 1 WK POST CARCINOGEN DOSE (STUDY DURATION: 100 D), Route [Inhibitor]: ORAL, Species: RAT, Strain/Sex: SPRAGUE-DAWLEY/FEMALE, Target Tissue: Type of Lesion: MAMMARY GLAND: TUMOR, Dose [Carcinogen]: 50 MG/KG BW ONCE) is 100%, 75%, 25%, p=0.03; the “tumour outcome (control, treated, inhibition, significance)” value (Carcinogen: N-NITROSO-N-METHYLUREA, 684-93-5, Dose [Inhibitor]: 0, 0.5 MG/KG OF DIET FOR 4.5 MO BEGINNING 1 WK POST CARCINOGEN DOSE (STUDY DURATION: 100 D), Route [Inhibitor]: ORAL, Species: RAT, Strain/Sex: SPRAGUE-DAWLEY/FEMALE, Target Tissue: Type of Lesion: MAMMARY GLAND: TUMOR, Dose [Carcinogen]: 50 MG/KG BW ONCE) is on record as 96%, 50%, 48%, p=0.003; the “tumour outcome (control, treated, inhibition, significance)” value (Carcinogen: N-NITROSO-N-METHYLUREA, 684-93-5, Dose [Inhibitor]: 0, 1 MG/KG OF DIET FOR 4.5 MO BEGINNING 1 WK POST CARCINOGEN DOSE (STUDY DURATION: 100 D), Route [Inhibitor]: ORAL, Species: RAT, Strain/Sex: SPRAGUE-DAWLEY/FEMALE, Target Tissue: Type of Lesion: MAMMARY GLAND: TUMOR, Dose [Carcinogen]: 50 MG/KG BW ONCE) was 96%, 42%, 56%, p<0.001; the “tumour outcome (control, treated, inhibition, significance)” value (Carcinogen: NONE USED, Dose [Inhibitor]: 0, 125 UG/D FROM SUSTAINED RELEASE SILASTIC CAPSULES ADMINISTERED TO OVARIECTOMIZED MICE FOR 17 MO BEGINNING AT 3 MO OF, Route [Inhibitor]: IMPLANT, Species: MOUSE, Strain/Sex: C3H/OUJ/FEMALE, Target Tissue: Type of Lesion: MAMMARY GLAND: TUMOR) is recorded as 50%, 22%, 56%, p<0.003; the “tumour outcome (control, treated, inhibition, significance)” value (Carcinogen: NONE USED, Dose [Inhibitor]: 0, 125 UG/D FROM SUSTAINED RELEASE SILASTIC CAPSULES FOR 3 MO BEGINNING AT 4 MO OF AGE (STUDY DURATION: 18 MO), Route [Inhibitor]: IMPLANT, Species: MOUSE, Strain/Sex: C3H/OUJ/FEMALE, Target Tissue: Type of Lesion: MAMMARY GLAND: TUMOR) is 100%, 20%, 80%, p<0.001. The “tumour outcome (control, treated, inhibition, significance)” value is given as 100%, 26%, 74%, p<0.001 (Carcinogen: NONE USED, Dose [Inhibitor]: 0, 125 UG/D FROM SUSTAINED RELEASE SILASTIC CAPSULES FOR 6 MO BEGINNING AT 3 MO OF AGE (STUDY DURATION: 18 MO), Route [Inhibitor]: IMPLANT, Species: MOUSE, Strain/Sex: C3H/OUJ/FEMALE, Target Tissue: Type of Lesion: MAMMARY GLAND: TUMOR); 100%, 24%, 76%, p<0.001 (Carcinogen: NONE USED, Dose [Inhibitor]: 0, 125 UG/D FROM SUSTAINED RELEASE SILASTIC CAPSULES FOR 12 MO BEGINNING AT 3 MO OF AGE (STUDY DURATION: 18 MO), Route [Inhibitor]: IMPLANT, Species: MOUSE, Strain/Sex: C3H/OUJ/FEMALE, Target Tissue: Type of Lesion: MAMMARY GLAND: TUMOR); 100%, 20%, 80%, p<0.003 (Carcinogen: NONE USED, Dose [Inhibitor]: 0, 125 UG/D FROM SUSTAINED RELEASE SILASTIC CAPSULES FOR 17 MO BEGINNING AT 3 MO OF AGE (STUDY DURATION: 27 MO), Route [Inhibitor]: IMPLANT, Species: MOUSE, Strain/Sex: C3H/OUJ/FEMALE, Target Tissue: Type of Lesion: MAMMARY GLAND: TUMOR); 100%, 92%, 8%, not significant (Carcinogen: PROGESTERONE, 57-83-0, Dose [Inhibitor]: 0, 125 UG/D FROM SUSTAINED RELEASE SILASTIC CAPSULES FOR 3 MO PRIOR TO CARCINOGEN TREATMENT (STUDY DURATION: 18 MO), Route [Inhibitor]: IMPLANT, Species: MOUSE, Strain/Sex: C3H/OUJ/FEMALE, Target Tissue: Type of Lesion: MAMMARY GLAND: TUMOR, Dose [Carcinogen]: 20 MG ADMINISTERED IN SUSTAINED RELEASE SILASTIC CAPSULES FOR A ONE MO DURATION EVERY OTHER MO); 100%, 52%, 48%, p<0.002 (Carcinogen: PROGESTERONE, 57-83-0, Dose [Inhibitor]: 0, 125 UG/D FROM SUSTAINED RELEASE SILASTIC CAPSULES FOR 6 MO PRIOR TO CARCINOGEN TREATMENT (STUDY DURATION: 18 MO), Route [Inhibitor]: IMPLANT, Species: MOUSE, Strain/Sex: C3H/OUJ/FEMALE, Target Tissue: Type of Lesion: MAMMARY GLAND: TUMOR, Dose [Carcinogen]: 20 MG ADMINISTERED IN SUSTAINED RELEASE SILASTIC CAPSULES FOR A ONE MO DURATION EVERY OTHER MO); 100%, 88%, 12%, not significant (Carcinogen: PROGESTERONE, 57-83-0, Dose [Inhibitor]: 0, 125 UG/D FROM SUSTAINED RELEASE SILASTIC CAPSULES FOR 12 MO BEGINNING AT 3 MO OF AGE (STUDY DURATION: 21 MO), Route [Inhibitor]: IMPLANT, Species: MOUSE, Strain/Sex: C3H/OUJ/FEMALE, Target Tissue: Type of Lesion: MAMMARY GLAND: TUMOR, Dose [Carcinogen]: 20 MG ADMINISTERED IN SUSTAINED RELEASE SILASTIC CAPSULES GIVEN FOR A ONE MONTH DURATION EVERY OTHER MO BEGINNING AT 3 M). The “tumour outcome (control, treated, inhibition, significance)” value by setting is: (Carcinogen: SUBCUTANEOUS IMPLANT, Dose [Inhibitor]: ZERANOL, 26538-44-3, Route [Inhibitor]: 0, 5 MG 2/WK TO DAY 32 THEN 1/WK TO DAY 202 (STUDY DURATION: 202 D), Species: HAMSTER, Strain/Sex: SUBCUTANEOUS, Target Tissue: Type of Lesion: LIVER: HEPATOCELLULAR ADENOMA, Dose [Carcinogen]: NONE USED) 56%, 0%, 100%, not calculated; (Carcinogen: ZERANOL, 26538-44-3, Dose [Inhibitor]: 0, 5 MG 2/WK TO DAY 32 THEN 1/WK TO DAY 202 (STUDY DURATION: 202 D), Route [Inhibitor]: SUBCUTANEOUS, Species: HAMSTER, Strain/Sex: ARMENIAN/FEMALE, Target Tissue: Type of Lesion: LIVER: HEPATOCELLULAR ADENOMA, Dose [Carcinogen]: 36 MG IMPLANTED ON DAYS 0 AND 94) 57%, 0%, 100%, not calculated; (Carcinogen: ZERANOL, 26538-44-3, Dose [Inhibitor]: 0, 5 MG 2/WK TO DAY 32 THEN 1/WK TO DAY 202 (STUDY DURATION: 202 D), Route [Inhibitor]: SUBCUTANEOUS, Species: HAMSTER, Strain/Sex: ARMENIAN/FEMALE, Target Tissue: Type of Lesion: LIVER: HEPATOCELLULAR CARCINOMA, Dose [Carcinogen]: 36 MG IMPLANTED ON DAYS 0 AND 94) 6/7 (86%), 0/4 (0%), 100%, not calculated; (Carcinogen: ZERANOL, 26538-44-3, Dose [Inhibitor]: 0, 5 MG 2/WK TO DAY 32 THEN 1/WK TO DAY 202 (STUDY DURATION: 202 D), Route [Inhibitor]: SUBCUTANEOUS, Species: HAMSTER, Strain/Sex: ARMENIAN/MALE, Target Tissue: Type of Lesion: LIVER: HEPATOCELLULAR CARCINOMA, Dose [Carcinogen]: 36 MG IMPLANTED ON DAYS 0 AND 94) 3/9 (33%), 0/4 (0%), 100%, not calculated.
